Experimental data published in patent US20250215039A1, “NUCLEOSIDES FOR TREATING CANCER” (PRIMEFOUR THERAPEUTICS, INC., priority 2022, published 2025).
Read-outs that look alike come from different tables or passages of the source.

Test system: cancer cell lines
Assay: Cancer cell proliferation activity (CellTiterGlo, 72 h)
Assay type: cell-based
Details: 72 h, 72 h, read-out: IC50
Procedure: Dose response relationships on cell proliferation was assessed for representative Compounds of the Disclosure on cancer cell lines. Briefly, compound treatment of cells started one day after seeding with a final DMSO concentration of 0.1%, and was performed by nanodrop-dispensing using a Tecan Dispenser. 0.1% DMSO (solvent) and Staurosporine (10 μM) served as high control (100% viability) and low control (0% viability), respectively.
Cells were cultured in the appropriate media. For the assays, cells were seeded in white cell culture-treated flat and clear bottom multiwell plates and incubated at 37° C. overnight before compound was added. After incubation for 72 h at 37° C. at 5% or 10% CO2 dependent on the medium, cell plates were equilibrated to room temperature for one hour, CellTiterGlo reagent (Promega) was added and luminescence was measured approximately an hour later using a luminometer.
Raw data were converted into percent cell viability relative to the high and low control, which were set to 100% and 0%, respectively.
The IC50 values are summarized in Tables 9A-1, Table 10A, and Table 10B.

IC50 (5637 cell line (bladder)): 740 nM
IC50 (CLS439 cell line (bladder)): > 50000 nM
IC50 (HS729 cell line (muscle)): 1370 nM
IC50 (HSS78T cell line): > 50000 nM
IC50 (JAR cell line (placenta)): 5830 nM
IC50 (SKMELS cell line): 5100 nM
IC50 (Homo sapiens, 22Rv1, 72 h, 22RV1 cell line (prostate)): 310 nM
IC50 (Homo sapiens, 786-0, 72 h, 786O cell line (kidney)): 2510 nM
IC50 (Homo sapiens, A204, 72 h, A204 cell line (muscle)): 2550 nM
IC50 (Homo sapiens, A549, 72 h, A549 cell line): 530 nM
IC50 (Homo sapiens, A673, 72 h, A673 cell line (bone)): 2810 nM
IC50 (Homo sapiens, A2780, 72 h, A2780 cell line (ovary)): 3500 nM
IC50 (Homo sapiens, A-375, 72 h, A375 cell line (skin)): 3510 nM
IC50 (Homo sapiens, A-431, 72 h, A431 cell line (skin)): 50 nM
IC50 (Homo sapiens, ACHN, ACHN cell line (kidney)): 270 nM
IC50 (Homo sapiens, ASPC1, 72 h, ASPC1 cell line (pancreas)): 160 nM
IC50 (Homo sapiens, BT-20, 72 h, BT20 cell line (breast)): > 50000 nM
IC50 (Homo sapiens, BXPC-3, 72 h, BXPC3 cell line (pancreas)): 20 nM
IC50 (Homo sapiens, C-33-A, C33A cell line (cervical)): 1580 nM
IC50 (Homo sapiens, CAKI-1, 72 h, CAKI1 cell line (kidney)): > 50000 nM
IC50 (Homo sapiens, COLO 205, 72 h, COLO205 cell line (colon)): 310 nM
IC50 (Homo sapiens, COLO-678, 72 h, COLO678 cell line (colon)): > 50000 nM
IC50 (Homo sapiens, Ca-Ski, CASKI cell line (cervical)): 2470 nM
IC50 (Homo sapiens, Caco-2, 72 h, CACO2 cell line (colon)): > 50000 nM
IC50 (Homo sapiens, Calu-6, 72 h, CALU6 cell line (lung)): 1710 nM
IC50 (Homo sapiens, DLD-1, 72 h, DLD1 cell line (colon)): 3740 nM
IC50 (Homo sapiens, DU-145, 72 h, DU145 cell line (prostate)): 1000 nM
IC50 (Homo sapiens, EFO-21, 72 h, EFO21 cell line (ovary)): 2780 nM
IC50 (Homo sapiens, EJ-28, 72 h, EJ28 cell line (bladder)): 1720 nM
IC50 (Homo sapiens, Granta-519, 72 h, GRANTA-519 cell line (hematological)): 650 nM
IC50 (Homo sapiens, HCT-15, 72 h, HCT15 cell line (colon)): 2950 nM
IC50 (Homo sapiens, HCT-116, 72 h, HCT116 cell line (colon)): 5530 nM
IC50 (Homo sapiens, HEK293, 72 h, HEK293 cell line (kidney)): 4350 nM
IC50 (Homo sapiens, HL-60, 72 h, HL-60 cell line (hematological)): 3870 nM
IC50 (Homo sapiens, HT-29, 72 h, HT29 cell line (colon)): 530 nM
IC50 (Homo sapiens, HT-1080, 72 h, HT1080 cell line (connective tissue)): 2690 nM
IC50 (Homo sapiens, HeLa, HELA cell line (cervical)): > 50000 nM
IC50 (Homo sapiens, HepG2, 72 h, HEPG2 cell line (liver)): 770 nM
IC50 (Homo sapiens, IGROV-1, 72 h, IGROV1 cell line (ovary)): 2990 nM
IC50 (Homo sapiens, IMR-90, 72 h, IMR.90 cell line): > 50000 nM
IC50 (Homo sapiens, J82, 72 h, J82 cell line (bladder)): 1000 nM
IC50 (Homo sapiens, JEG-3, 72 h, JEG3 cell line (placenta)): 1170 nM
IC50 (Homo sapiens, JIMT-1, 72 h, JIMT1 cell line (breast)): 7280 nM
IC50 (Homo sapiens, K562, 72 h, K-562 cell line (hematological)): 5830 nM
IC50 (Homo sapiens, Kasumi 1, 72 h, KASUMI-1 cell line (hematological)): > 50000 nM
IC50 (Homo sapiens, L-363, 72 h, L-363 cell line (hematological)): 2800 nM
IC50 (Homo sapiens, LoVo, LOVO cell line (colon)): 510 nM
IC50 (Homo sapiens, MCF7, 72 h, MCF7 cell line (breast)): 170 nM
IC50 (Homo sapiens, MDA-MB-231, 72 h, MDAMB231 cell line (breast)): > 50000 nM
IC50 (Homo sapiens, MDA-MB-435, 72 h, MDAMB435 cell line (skin)): 2440 nM
IC50 (Homo sapiens, MDA-MB-436, 72 h, MDAMB436 cell line (breast)): 420 nM
IC50 (Homo sapiens, MDA-MB-468, 72 h, MDAMB468 cell line (breast)): 2880 nM
IC50 (Homo sapiens, MG-63, 72 h, MG63 cell line (bone)): 1810 nM
IC50 (Homo sapiens, MHH-ES-1, 72 h, MHHES1 cell line (bone)): 2290 nM
IC50 (Homo sapiens, MIA PaCa-2, 72 h, MIAPACA2 cell line (pancreas)): 2430 nM
IC50 (Homo sapiens, MINO, MINO cell line (hematological)): 580 nM
IC50 (Homo sapiens, MV4-11, 72 h, MV4-11 cell line (hematological)): 180 nM
IC50 (Homo sapiens, NCI-H23, 72 h, NCI-H23 cell line (lung)): 1410 nM
IC50 (Homo sapiens, NCI-H82, 72 h, NCIH82 cell line (lung)): 4600 nM
IC50 (Homo sapiens, NCI-H292, 72 h, NCIH292 cell line (lung)): > 50000 nM
IC50 (Homo sapiens, NCI-H460, 72 h, NCIH460 cell line (lung)): 600 nM
IC50 (Homo sapiens, OVCAR-3, 72 h, OVCAR3 cell line (ovary)): 5890 nM
IC50 (Homo sapiens, OVCAR-4, 72 h, OVCAR4 cell line (ovary)): 2790 nM
IC50 (Homo sapiens, PANC-1, 72 h, PANC1 cell line (pancreas)): 4990 nM
IC50 (Homo sapiens, PC-3, 72 h, PC3 cell line (prostate)): 8200 nM
IC50 (Homo sapiens, PLC-PRF-5, 72 h, PLCPRF5 cell line (liver)): 1720 nM
IC50 (Homo sapiens, Panc1005, 72 h, PANC1005 cell line (pancreas)): > 50000 nM
IC50 (Homo sapiens, RD, RD cell line (muscle)): 3490 nM
IC50 (Homo sapiens, Ramos, RAMOS cell line (hematological)): 3140 nM
IC50 (Homo sapiens, SAOS-2, 72 h, SAOS2 cell line (bone)): 1140 nM
IC50 (Homo sapiens, SF-268, 72 h, SF268 cell line (brain)): 1070 nM
IC50 (Homo sapiens, SF-295, 72 h, SF295 cell line (brain)): 1200 nM
IC50 (Homo sapiens, SK-BR-3, 72 h, SKBR3 cell line (breast)): 40 nM
IC50 (Homo sapiens, SK-HEP1, 72 h, SKHEP1 cell line (liver)): 1360 nM
IC50 (Homo sapiens, SK-LMS-1, 72 h, SKLMS1 cell line (uterus)): 1140 nM
IC50 (Homo sapiens, SK-MEL-28, 72 h, SKMEL28 cell line (skin)): > 50000 nM
IC50 (Homo sapiens, SK-N-AS, SKNAS cell line (brain)): > 50000 nM
IC50 (Homo sapiens, SK-N-SH, SKNSH cell line (brain)): > 50000 nM
IC50 (Homo sapiens, SK-OV-3, 72 h, SKOV3 cell line (ovary)): 810 nM
IC50 (Homo sapiens, SNB-75, 72 h, SNB75 cell line (brain)): > 50000 nM
IC50 (Homo sapiens, SU-DHL10, 72 h, SU-DHL-10 cell line (hematological)): 4950 nM
IC50 (Homo sapiens, SU-DHL-6, 72 h, SU-DHL-6 cell line (hematological)): 5490 nM
IC50 (Homo sapiens, SW-620, 72 h, SW620 cell line (colon)): 390 nM
IC50 (Homo sapiens, T-24, 72 h, T24 cell line (bladder)): 2840 nM
IC50 (Homo sapiens, TE-671, 72 h, TE671 cell line (muscle)): 5920 nM
IC50 (Homo sapiens, THP-1, 72 h, THP-1 cell line (hematological)): 1690 nM
IC50 (Homo sapiens, U2OS, U2OS cell line (bone)): > 50000 nM
IC50 (Homo sapiens, U-87 MG, U87MG cell line (brain)): > 50000 nM
IC50 (Homo sapiens, UMUC3, 72 h, UMUC3 cell line (bladder)): 2450 nM
IC50 (Homo sapiens, UO-31, 72 h, UO31 cell line (kidney)): > 50000 nM
IC50 (Homo sapiens, WSU-NHL, WSU-NHL cell line (hematological)): 610 nM
IC50 (MT-3, 72 h, MT3 cell line (breast)): 900 nM
IC50 (NCI-H358M, NCIH358M cell line (lung)): 1340 nM
IC50 (PBMC, PBMC (hematological)): 4980 nM
IC50 (RD-ES, RDES cell line (bone)): 1290 nM
Compound: C[C@]1(CO)O[C@@H](n2cc(F)c(=O)[nH]c2=O)C[C@@H]1O [Cpd. No. 105, 5-fluoro-1-((2R,4S,5R)-4-hydroxy-5-(hydroxymethyl)-5-methyltetrahydrofuran-2-yl)pyrimidine-2,4(1H,3H)-dione]
